Experimental findings from ChEMBL document CHEMBL5252526, “Small Molecule Kinase Inhibitors for the Treatment of Brain Cancer” (J Med Chem, 2016) are described below.

Data set [1] in a line: Ratio of drug concentration in brain to plasma in mouse assessed as unbound fraction. It is filed as ADME, cell-free. To be noted: brain and plasma, read-out: K(p,uu,brain).
A short description of data set [2]: Ratio of AUC (0 to 24 hrs) in brain to plasma in mouse. It is filed as ADME, cell-free. The following applies: brain and plasma, read-out: Ratio AUC.
A short description of data set [3]: Ratio of drug concentration in brain to plasma in rat. It counts as ADME, cell-free. To be noted: brain and plasma, read-out: BPR.
A short description of data set [4]: Ratio of drug concentration in brain to plasma in mouse. The following applies: brain and plasma, read-out: BPR. It counts as ADME, cell-free.
Data set [5] can be described thus: Ratio of drug concentration in CSF to plasma in mouse assessed as unbound fraction. To be noted: CSF and plasma. It is filed as ADME, tissue-based.
The nature of data set [6]: Ratio of AUC in brain to plasma in rat at 25 mg/kg, po. It is filed as ADME, organism-based. To be noted: brain and plasma, read-out: Ratio AUC.
A short description of data set [7]: Ratio of AUC in brain to plasma in rat at 75 mg/kg, po. It is filed as ADME, organism-based. To be noted: brain and plasma, read-out: Ratio AUC.
Data set [8] can be described thus: Ratio of drug concentration in brain to plasma in mouse at 75 mg/kg, po. It is filed as ADME, organism-based. To be noted: brain and plasma, read-out: BPR.
The nature of data set [9]: Ratio of drug concentration in brain to plasma in rat at 3.5 mg/kg, iv. It counts as ADME, organism-based. To be noted: brain and plasma, read-out: BPR.

In the case of `CCN1CCN(Cc2ccc(Nc3ncc(F)c(-c4cc(F)c5nc(C)n(C(C)C)c5c4)n3)nc2)CC1` [ABEMACICLIB], the Kp uu in [1] amounted to 0.2.

Regarding `COc1cc(N2CCC(N3CCN(C)CC3)CC2)ccc1Nc1ncnc(Nc2ccccc2S(=O)(=O)C(C)C)n1` [ASP-3026], the Kp in [2] was found to be 0.72.

Take `COc1cc(Nc2c(C#N)cnc3cc(OCCCN4CCN(C)CC4)c(OC)cc23)c(Cl)cc1Cl` [BOSUTINIB]: the Kp in data set [3] was determined as 0.4.

For the molecule `COc1cc2c(Oc3ccc(NC(=O)C4(C(=O)Nc5ccc(F)cc5)CC4)cc3F)ccnc2cc1OCCCN1CCOCC1` [FORETINIB], in data set [4], the Kp was 0.2.

`COc1cc2ncnc(Nc3ccc(F)c(Cl)c3)c2cc1OCCCN1CCOCC1` [GEFITINIB]: the Kp uu in data set [5] is 0.09; in [1], 0.02.

`Cc1ccc(C(=O)Nc2ccc(CN3CCN(C)CC3)c(C(F)(F)F)c2)cc1C#Cc1cnc2cccnn12` [PONATINIB]: in data set [4], the Kp was 1.6.

Turning to `CC[C@H](CO)Nc1nc(NCc2ccccc2)c2ncn(C(C)C)c2n1` [SELICICLIB], the Kp in data set [6] amounted to 0.3.

Regarding `CC(C)(O)CC(=O)NCCn1ccc2ncnc(Nc3ccc(Oc4cccc(C(F)(F)F)c4)c(Cl)c3)c21` [TAK-285], the Kp in data set [7] turned out to be 0.24.

In the case of `Cc1cc(Nc2ncnc3ccc(NC4=NC(C)(C)CO4)cc23)ccc1Oc1ccn2ncnc2c1` [TUCATINIB], the Kp in data set [8] is 0.5.

For `CN[C@@H]1C[C@H]2O[C@@](C)([C@@H]1OC)n1c3ccccc3c3c4c(c5c6ccccc6n2c5c31)C(=O)N[C@H]4O` [UCN-01], the Kp in [9] turned out to be 0.5.
